# Test results taken from US20070270418A1, “Inhibitors of P38 and Methods of Using the Same” (priority 2003, published 2007).
# How the values were obtained:
# Assay in all cases: Broad selectivity panel, 32P incorporation
# Type in all cases: biochemical
# CaMKIV = molecular target: T1, CaMKIV (Homo sapiens, UniProt Q16566); conditions: 40 μM ATP, read-out: Percent inhibition CaMKIV; for inhibition at 0.1 µM: 0.1 μM compound; for inhibition at 1 µM: 1 μM compound
# T1 construct: purchased Upstate (Charlottesville, Va.)
# T1 sequence (Q16566 1-473): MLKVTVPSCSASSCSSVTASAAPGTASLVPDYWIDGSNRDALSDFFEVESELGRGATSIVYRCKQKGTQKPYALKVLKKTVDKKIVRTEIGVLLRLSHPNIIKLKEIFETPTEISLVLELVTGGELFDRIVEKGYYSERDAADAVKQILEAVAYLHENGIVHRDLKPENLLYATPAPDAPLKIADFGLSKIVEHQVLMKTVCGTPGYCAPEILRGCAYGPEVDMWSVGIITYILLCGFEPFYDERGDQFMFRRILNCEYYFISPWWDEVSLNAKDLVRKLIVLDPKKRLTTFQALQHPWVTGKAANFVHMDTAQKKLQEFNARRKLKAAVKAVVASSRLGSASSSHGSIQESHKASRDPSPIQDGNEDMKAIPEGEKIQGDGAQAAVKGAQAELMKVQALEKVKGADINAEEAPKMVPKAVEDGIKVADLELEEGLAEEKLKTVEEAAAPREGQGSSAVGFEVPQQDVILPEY
# Protocol: (§1) Various compounds of the present invention are screened against a panel of 24 additional kinases (Upstate, Charlottesville, Va.). Compounds are tested 0.1 μM and 1 μM in reactions containing 40 μM ATP. Incorporation of radiolabeled phosphate (^32P) into each kinase substrate is measured in the presence and absence of test compound. Results are reported as the percent decrease in the amount of ^32P incorporated into the substrate in the presence of compound, compared to buffer control.
# FGFR3 = molecular target: T2, FGFR3 (Homo sapiens, UniProt P22607); conditions: 40 μM ATP, read-out: Percent inhibition FGFR3; for inhibition at 0.1 µM: 0.1 μM compound; for inhibition at 1 µM: 1 μM compound
# T2 construct: purchased Upstate (Charlottesville, Va.)
# Protocol: as §1
# GSK3β = molecular target: T3, GSK3β (Homo sapiens, UniProt P49841); conditions: 40 μM ATP, read-out: Percent inhibition GSK3β; for inhibition at 0.1 µM: 0.1 μM compound; for inhibition at 1 µM: 1 μM compound
# T3 construct: purchased Upstate (Charlottesville, Va.)
# Protocol: as §1
# JNK1α1 = molecular target: T4, JNK1α1 (Homo sapiens, UniProt P45983); conditions: 40 μM ATP, read-out: Percent inhibition JNK1α1; for inhibition at 0.1 µM: 0.1 μM compound; for inhibition at 1 µM: 1 μM compound
# T4 construct: purchased Upstate (Charlottesville, Va.)
# Protocol: as §1
# Lyn = molecular target: T5, Lyn (Homo sapiens, UniProt P07948); conditions: 40 μM ATP, read-out: Percent inhibition Lyn; for inhibition at 0.1 µM: 0.1 μM compound; for inhibition at 1 µM: 1 μM compound
# T5 construct: purchased Upstate (Charlottesville, Va.)
# Protocol: as §1
# MAPK1 = molecular target: T6, MAPK1 (Homo sapiens, UniProt P27361); conditions: 40 μM ATP, read-out: Percent inhibition MAPK1; for inhibition at 0.1 µM: 0.1 μM compound; for inhibition at 1 µM: 1 μM compound
# T6 construct: purchased Upstate (Charlottesville, Va.)
# Protocol: as §1
# MKK6 = molecular target: T7, MKK6 (Homo sapiens, UniProt P52564); conditions: 40 μM ATP, read-out: Percent inhibition MKK6; for inhibition at 0.1 µM: 0.1 μM compound; for inhibition at 1 µM: 1 μM compound
# T7 construct: purchased Upstate (Charlottesville, Va.)
# T7 sequence (P52564 1-334): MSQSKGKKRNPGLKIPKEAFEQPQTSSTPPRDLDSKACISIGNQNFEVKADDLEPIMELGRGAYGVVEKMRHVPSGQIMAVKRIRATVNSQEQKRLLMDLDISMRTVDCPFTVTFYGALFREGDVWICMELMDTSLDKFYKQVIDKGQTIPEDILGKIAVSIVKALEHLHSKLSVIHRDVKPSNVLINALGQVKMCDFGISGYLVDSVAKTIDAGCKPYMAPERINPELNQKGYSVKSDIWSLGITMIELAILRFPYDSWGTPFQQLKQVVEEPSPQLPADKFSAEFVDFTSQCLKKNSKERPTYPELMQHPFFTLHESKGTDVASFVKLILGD
# Protocol: as §1
# PDGFR α = molecular target: T8, PDGFR α (Homo sapiens, UniProt P16234); conditions: 40 μM ATP, read-out: Percent inhibition PDGFR α; for inhibition at 0.1 µM: 0.1 μM compound; for inhibition at 1 µM: 1 μM compound
# T8 construct: purchased Upstate (Charlottesville, Va.)
# Protocol: as §1
# PKA = molecular target: T9, PKA (Homo sapiens, UniProt P17612); conditions: 40 μM ATP, read-out: Percent inhibition PKA; for inhibition at 0.1 µM: 0.1 μM compound; for inhibition at 1 µM: 1 μM compound
# T9 construct: purchased Upstate (Charlottesville, Va.)
# Protocol: as §1
# PKB α = molecular target: T10, PKB α (Homo sapiens, UniProt P31749); conditions: 40 μM ATP, read-out: Percent inhibition PKB α; for inhibition at 0.1 µM: 0.1 μM compound; for inhibition at 1 µM: 1 μM compound
# T10 construct: purchased Upstate (Charlottesville, Va.)
# Protocol: as §1
# PKBβ = molecular target: T11, PKBβ (Homo sapiens, UniProt P31751); conditions: 40 μM ATP, read-out: Percent inhibition PKBβ; for inhibition at 0.1 µM: 0.1 μM compound; for inhibition at 1 µM: 1 μM compound
# T11 construct: purchased Upstate (Charlottesville, Va.)
# Protocol: as §1
# SAPK4 = molecular target: T12, SAPK4 (Homo sapiens, UniProt O15264); conditions: 40 μM ATP, read-out: Percent inhibition SAPK4; for inhibition at 0.1 µM: 0.1 μM compound; for inhibition at 1 µM: 1 μM compound
# T12 construct: purchased Upstate (Charlottesville, Va.)
# T12 sequence (O15264 1-365): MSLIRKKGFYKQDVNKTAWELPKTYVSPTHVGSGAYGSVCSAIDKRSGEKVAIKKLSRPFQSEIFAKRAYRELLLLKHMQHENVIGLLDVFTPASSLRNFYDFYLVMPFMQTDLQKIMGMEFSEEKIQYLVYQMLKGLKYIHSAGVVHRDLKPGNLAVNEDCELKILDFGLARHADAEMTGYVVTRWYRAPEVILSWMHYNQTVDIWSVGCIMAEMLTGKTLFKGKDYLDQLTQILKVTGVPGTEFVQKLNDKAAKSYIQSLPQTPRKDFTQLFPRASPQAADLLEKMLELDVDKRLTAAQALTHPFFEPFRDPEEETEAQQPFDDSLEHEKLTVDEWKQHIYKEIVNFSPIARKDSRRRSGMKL
# Protocol: as §1
# c-RAF = molecular target: T13, c-RAF (Homo sapiens, UniProt P04049); conditions: 40 μM ATP, read-out: Percent inhibition c-RAF; for inhibition at 0.1 µM: 0.1 μM compound; for inhibition at 1 µM: 1 μM compound
# T13 construct: purchased Upstate (Charlottesville, Va.)
# Protocol: as §1
# p70S6K = conditions: 40 μM ATP
# Protocol: as §1
# T6 sequence (P27361 whole entry): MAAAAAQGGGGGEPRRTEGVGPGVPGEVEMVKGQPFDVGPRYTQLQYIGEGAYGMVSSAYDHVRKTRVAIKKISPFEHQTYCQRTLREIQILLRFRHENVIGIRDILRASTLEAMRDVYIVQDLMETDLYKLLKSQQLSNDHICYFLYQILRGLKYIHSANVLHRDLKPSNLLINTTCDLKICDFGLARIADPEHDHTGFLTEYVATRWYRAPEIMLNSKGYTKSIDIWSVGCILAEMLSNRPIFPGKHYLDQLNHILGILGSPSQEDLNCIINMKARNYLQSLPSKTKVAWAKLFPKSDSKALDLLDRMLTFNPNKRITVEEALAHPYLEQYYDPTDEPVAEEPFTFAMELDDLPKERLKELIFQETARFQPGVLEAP
# T13 sequence (P04049 whole entry, species assumed): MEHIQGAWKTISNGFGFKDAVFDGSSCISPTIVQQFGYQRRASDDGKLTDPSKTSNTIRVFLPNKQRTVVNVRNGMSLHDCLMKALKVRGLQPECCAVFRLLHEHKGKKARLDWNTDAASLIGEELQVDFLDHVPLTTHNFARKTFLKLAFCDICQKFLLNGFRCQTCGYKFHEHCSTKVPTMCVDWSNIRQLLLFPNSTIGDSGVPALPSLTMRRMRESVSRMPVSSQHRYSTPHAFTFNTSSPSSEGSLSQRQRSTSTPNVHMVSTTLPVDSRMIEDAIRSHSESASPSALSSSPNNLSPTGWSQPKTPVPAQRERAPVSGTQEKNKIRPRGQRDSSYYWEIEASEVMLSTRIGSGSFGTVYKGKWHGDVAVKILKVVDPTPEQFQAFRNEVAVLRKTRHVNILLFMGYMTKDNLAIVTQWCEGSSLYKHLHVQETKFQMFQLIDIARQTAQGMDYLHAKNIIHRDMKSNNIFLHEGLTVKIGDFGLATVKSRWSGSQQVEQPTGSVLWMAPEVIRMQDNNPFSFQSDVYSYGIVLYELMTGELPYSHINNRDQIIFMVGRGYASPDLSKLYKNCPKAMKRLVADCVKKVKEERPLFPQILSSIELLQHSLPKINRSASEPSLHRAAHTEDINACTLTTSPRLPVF
# T8 sequence (P16234 24-1089, species assumed): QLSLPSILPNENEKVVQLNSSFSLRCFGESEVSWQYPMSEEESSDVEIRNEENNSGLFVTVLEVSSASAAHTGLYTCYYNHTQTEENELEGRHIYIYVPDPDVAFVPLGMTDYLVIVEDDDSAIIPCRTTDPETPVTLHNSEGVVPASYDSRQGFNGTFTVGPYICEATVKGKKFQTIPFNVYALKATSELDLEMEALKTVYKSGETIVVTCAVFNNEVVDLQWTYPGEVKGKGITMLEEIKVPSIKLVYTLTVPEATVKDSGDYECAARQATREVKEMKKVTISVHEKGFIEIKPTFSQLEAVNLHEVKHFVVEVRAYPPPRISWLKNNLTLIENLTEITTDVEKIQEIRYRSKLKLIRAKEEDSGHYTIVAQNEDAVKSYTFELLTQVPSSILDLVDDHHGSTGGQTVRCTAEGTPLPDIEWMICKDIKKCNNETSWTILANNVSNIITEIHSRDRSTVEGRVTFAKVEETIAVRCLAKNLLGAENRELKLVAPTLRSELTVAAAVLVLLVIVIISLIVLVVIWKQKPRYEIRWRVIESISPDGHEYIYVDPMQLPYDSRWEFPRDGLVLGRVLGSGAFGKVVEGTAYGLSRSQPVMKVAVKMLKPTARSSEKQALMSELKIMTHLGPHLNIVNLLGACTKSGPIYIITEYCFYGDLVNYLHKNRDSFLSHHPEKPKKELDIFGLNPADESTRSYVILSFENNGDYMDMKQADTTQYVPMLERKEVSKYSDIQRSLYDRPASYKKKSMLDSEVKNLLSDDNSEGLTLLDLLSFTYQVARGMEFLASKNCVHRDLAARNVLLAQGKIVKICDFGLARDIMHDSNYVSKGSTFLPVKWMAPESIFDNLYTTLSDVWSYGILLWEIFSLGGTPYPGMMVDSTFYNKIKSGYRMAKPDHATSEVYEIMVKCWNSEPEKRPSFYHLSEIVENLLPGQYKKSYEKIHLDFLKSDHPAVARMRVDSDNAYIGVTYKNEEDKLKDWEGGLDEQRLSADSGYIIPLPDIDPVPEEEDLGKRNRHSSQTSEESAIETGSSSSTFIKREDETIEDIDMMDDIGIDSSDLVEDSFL
# T10 sequence (P31749 whole entry, species assumed): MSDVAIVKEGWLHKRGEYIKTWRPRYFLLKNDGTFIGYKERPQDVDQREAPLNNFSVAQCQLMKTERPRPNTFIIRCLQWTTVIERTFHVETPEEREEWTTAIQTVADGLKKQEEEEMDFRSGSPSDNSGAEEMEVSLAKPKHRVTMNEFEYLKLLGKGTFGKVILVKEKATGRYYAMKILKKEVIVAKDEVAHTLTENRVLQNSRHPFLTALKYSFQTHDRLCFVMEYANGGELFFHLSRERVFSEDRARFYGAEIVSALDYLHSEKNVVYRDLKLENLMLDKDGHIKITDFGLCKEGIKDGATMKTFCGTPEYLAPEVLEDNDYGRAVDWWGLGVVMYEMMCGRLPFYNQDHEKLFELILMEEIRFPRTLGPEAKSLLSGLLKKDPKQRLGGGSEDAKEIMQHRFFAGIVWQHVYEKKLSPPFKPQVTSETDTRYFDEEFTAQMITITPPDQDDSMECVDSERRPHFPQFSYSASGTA
# T2 sequence (P22607 23-806, species assumed): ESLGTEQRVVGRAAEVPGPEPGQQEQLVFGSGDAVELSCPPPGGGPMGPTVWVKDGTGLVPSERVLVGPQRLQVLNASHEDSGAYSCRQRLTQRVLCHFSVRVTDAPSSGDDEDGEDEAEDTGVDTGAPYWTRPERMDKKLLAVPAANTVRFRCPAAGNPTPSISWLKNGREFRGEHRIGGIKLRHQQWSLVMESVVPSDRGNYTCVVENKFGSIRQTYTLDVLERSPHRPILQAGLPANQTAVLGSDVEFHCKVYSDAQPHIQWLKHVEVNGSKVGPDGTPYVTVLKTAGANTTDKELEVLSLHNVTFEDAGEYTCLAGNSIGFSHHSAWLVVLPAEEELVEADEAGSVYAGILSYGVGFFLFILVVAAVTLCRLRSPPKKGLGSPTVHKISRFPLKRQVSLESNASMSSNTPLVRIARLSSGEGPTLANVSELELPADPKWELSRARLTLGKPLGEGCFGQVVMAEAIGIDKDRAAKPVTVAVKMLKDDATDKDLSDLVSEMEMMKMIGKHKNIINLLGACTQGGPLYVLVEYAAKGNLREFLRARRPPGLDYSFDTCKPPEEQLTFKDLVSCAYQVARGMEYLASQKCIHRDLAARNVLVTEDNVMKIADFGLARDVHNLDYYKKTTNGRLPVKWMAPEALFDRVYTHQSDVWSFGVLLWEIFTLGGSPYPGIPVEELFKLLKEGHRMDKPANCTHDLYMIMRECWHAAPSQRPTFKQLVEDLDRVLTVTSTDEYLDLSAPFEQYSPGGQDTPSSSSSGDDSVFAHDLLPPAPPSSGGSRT
# T3 sequence (P49841 whole entry, species assumed): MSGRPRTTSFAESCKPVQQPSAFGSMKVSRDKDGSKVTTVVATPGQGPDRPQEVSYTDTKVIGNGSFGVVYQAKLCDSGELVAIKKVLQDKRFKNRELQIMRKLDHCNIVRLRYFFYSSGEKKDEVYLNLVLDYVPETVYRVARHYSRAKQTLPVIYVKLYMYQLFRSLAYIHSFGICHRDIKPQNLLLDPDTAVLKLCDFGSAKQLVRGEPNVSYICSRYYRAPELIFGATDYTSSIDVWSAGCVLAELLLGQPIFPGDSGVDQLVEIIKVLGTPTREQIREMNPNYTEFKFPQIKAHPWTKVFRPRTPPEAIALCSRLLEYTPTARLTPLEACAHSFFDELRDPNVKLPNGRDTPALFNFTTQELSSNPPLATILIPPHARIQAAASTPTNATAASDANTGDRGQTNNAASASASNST
# T4 sequence (P45983 1-384 isoform P45983-2, species assumed): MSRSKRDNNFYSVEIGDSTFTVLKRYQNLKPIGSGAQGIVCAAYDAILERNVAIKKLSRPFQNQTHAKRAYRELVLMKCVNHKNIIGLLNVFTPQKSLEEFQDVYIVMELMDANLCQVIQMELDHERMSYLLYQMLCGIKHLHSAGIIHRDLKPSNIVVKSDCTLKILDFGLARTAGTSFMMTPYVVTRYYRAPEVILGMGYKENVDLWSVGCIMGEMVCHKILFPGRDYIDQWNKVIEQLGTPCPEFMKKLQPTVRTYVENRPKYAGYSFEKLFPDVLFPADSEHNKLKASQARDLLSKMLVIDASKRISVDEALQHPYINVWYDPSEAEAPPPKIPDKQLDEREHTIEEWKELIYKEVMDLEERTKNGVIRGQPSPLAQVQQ
# T5 sequence (P07948 whole entry, species assumed): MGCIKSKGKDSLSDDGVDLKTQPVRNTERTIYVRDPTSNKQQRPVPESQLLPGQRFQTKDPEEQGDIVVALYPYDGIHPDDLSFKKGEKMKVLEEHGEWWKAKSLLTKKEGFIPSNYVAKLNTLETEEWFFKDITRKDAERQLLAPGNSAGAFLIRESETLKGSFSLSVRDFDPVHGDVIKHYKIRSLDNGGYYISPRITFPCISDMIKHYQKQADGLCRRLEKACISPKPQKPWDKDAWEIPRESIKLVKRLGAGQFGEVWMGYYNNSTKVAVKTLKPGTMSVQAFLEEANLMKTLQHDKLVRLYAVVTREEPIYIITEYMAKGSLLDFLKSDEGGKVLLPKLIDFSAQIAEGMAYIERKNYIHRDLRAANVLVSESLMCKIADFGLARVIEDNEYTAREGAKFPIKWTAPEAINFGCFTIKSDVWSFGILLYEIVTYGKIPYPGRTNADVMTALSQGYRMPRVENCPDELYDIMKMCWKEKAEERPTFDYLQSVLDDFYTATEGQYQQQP
Structure (SMILES),inhibition at 0.1 µM (CaMKIV) [%],inhibition at 1 µM (CaMKIV) [%],inhibition at 0.1 µM (FGFR3) [%],inhibition at 1 µM (FGFR3) [%],inhibition at 0.1 µM (GSK3β) [%],inhibition at 1 µM (GSK3β) [%],inhibition at 0.1 µM (JNK1α1) [%],inhibition at 1 µM (JNK1α1) [%],inhibition at 0.1 µM (Lyn) [%],inhibition at 1 µM (Lyn) [%],inhibition at 0.1 µM (MAPK1) [%],inhibition at 1 µM (MAPK1) [%],inhibition at 0.1 µM (MKK6) [%],inhibition at 1 µM (MKK6) [%],inhibition at 0.1 µM (PDGFR α) [%],inhibition at 1 µM (PDGFR α) [%],inhibition at 0.1 µM (PKA) [%],inhibition at 1 µM (PKA) [%],inhibition at 0.1 µM (PKB α) [%],inhibition at 1 µM (PKB α) [%],further results
CS(=O)(=O)N1CCC(Nc2nccc(-c3c(-c4ccc(F)cc4)nc4occn34)n2)CC1 [CCLXXIX],18,-2,9,10,15,57,37,86,-7,-13,29,79,8,90,0,-9,6,-2,5,6,inhibition at 0.1 µM (PKBβ): 0%; inhibition at 1 µM (PKBβ): -30%; inhibition at 0.1 µM (SAPK4): 3%; inhibition at 1 µM (SAPK4): 0%; inhibition at 0.1 µM (c-RAF): 32%; inhibition at 1 µM (c-RAF): 83%; Percent inhibition p70S6K (p70S6K; 0.1 μM compound): 9; Percent inhibition p70S6K (p70S6K; 1 μM compound): 10
CC(=O)N1CCC(Nc2nccc(-c3c(-c4ccc(F)cc4)nc4occn34)n2)CC1 [CCLXXVIII],8,21,19,32,16,66,-13,61,-26,-29,25,63,26,83,23,17,-6,10,-6,4,inhibition at 0.1 µM (PKBβ): -3%; inhibition at 1 µM (PKBβ): 41%; inhibition at 0.1 µM (SAPK4): -3%; inhibition at 1 µM (SAPK4): -4%; inhibition at 0.1 µM (c-RAF): 26%; inhibition at 1 µM (c-RAF): 66%; Percent inhibition p70S6K (p70S6K; 0.1 μM compound): −11; Percent inhibition p70S6K (p70S6K; 1 μM compound): 4
CN1[C@@H]2CC[C@H]1C[C@@H](Nc1nccc(-c3c(-c4ccc(F)cc4)nc4occn34)n1)C2 [CCLXXXI],12,33,-27,26,6,19,-13,6,-6,4,25,49,19,76,11,21,-11,-2,-2,6,inhibition at 0.1 µM (PKBβ): -12%; inhibition at 1 µM (PKBβ): 13%; inhibition at 0.1 µM (SAPK4): 2%; inhibition at 1 µM (SAPK4): 7%; inhibition at 0.1 µM (c-RAF): -4%; inhibition at 1 µM (c-RAF): 8%; Percent inhibition p70S6K (p70S6K; 0.1 μM compound): −16; Percent inhibition p70S6K (p70S6K; 1 μM compound): −10
Fc1ccc(-c2nc3occn3c2-c2ccnc(NC3CCNCC3)n2)cc1 [CCLXXX],-10,7,-1,13,5,14,-26,18,-24,27,20,45,0,62,1,8,0,11,-1,13,inhibition at 0.1 µM (PKBβ): -18%; inhibition at 1 µM (PKBβ): 13%; inhibition at 0.1 µM (SAPK4): 0%; inhibition at 1 µM (SAPK4): 6%; inhibition at 0.1 µM (c-RAF): 21%; inhibition at 1 µM (c-RAF): 75%; Percent inhibition p70S6K (p70S6K; 0.1 μM compound): 7; Percent inhibition p70S6K (p70S6K; 1 μM compound): 18
CN(C)CC(C)(C)CNc1nccc(-c2c(-c3ccc(F)cc3)nc3occn23)n1 [CXIX],13,7,9,-2,11,13,-1,-18,2,-12,7,15,1,75,26,10,1,-8,11,5,inhibition at 0.1 µM (PKBβ): -4%; inhibition at 1 µM (PKBβ): -19%; inhibition at 0.1 µM (SAPK4): 3%; inhibition at 1 µM (SAPK4): -4%; inhibition at 0.1 µM (c-RAF): -3%; inhibition at 1 µM (c-RAF): 3%; Percent inhibition p70S6K (p70S6K; 0.1 μM compound): 0; Percent inhibition p70S6K (p70S6K; 1 μM compound): −5
